Reference: ChEMBL document CHEMBL2073897, “Major role of organic anion transporter 3 in the transport of indoxyl sulfate in the kidney” (Kidney Int, 2002)

What was measured:
[1] = molecular target: T1, Organic anion transporter 3 (Rattus norvegicus, UniProt Q9R1U7); experiment: TP_TRANSPORTER: inhibition of Indoxyl sulfate uptake (indoxyl sulfate: 2 uM, Hippurate: 1000 uM) in Xenopus laevis oocytes; assay type: functional, cell-based; design: scale not given: the % may be the effect or the level left; conditions: oocyte
T1 sequence (Q9R1U7 whole entry): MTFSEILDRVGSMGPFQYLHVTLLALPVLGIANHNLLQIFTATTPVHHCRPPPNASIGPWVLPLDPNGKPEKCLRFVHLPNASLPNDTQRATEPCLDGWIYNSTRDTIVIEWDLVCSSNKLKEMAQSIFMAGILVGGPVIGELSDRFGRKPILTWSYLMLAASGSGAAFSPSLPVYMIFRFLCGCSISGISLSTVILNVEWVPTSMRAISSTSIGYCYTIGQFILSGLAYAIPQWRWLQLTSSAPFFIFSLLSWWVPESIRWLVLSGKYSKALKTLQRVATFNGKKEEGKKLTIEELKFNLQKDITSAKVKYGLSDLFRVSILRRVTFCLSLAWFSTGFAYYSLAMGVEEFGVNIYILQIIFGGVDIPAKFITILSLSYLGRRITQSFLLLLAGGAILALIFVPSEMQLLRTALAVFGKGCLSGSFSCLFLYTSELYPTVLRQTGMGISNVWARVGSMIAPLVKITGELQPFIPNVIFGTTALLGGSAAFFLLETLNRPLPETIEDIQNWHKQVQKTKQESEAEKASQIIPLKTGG

[2] = molecular target: T2, Organic anion transporter 3 (OAT3) (Rattus norvegicus, UniProt Q9R1U7); experiment: TP_TRANSPORTER: inhibition of Indoxyl sulfate uptake (indoxyl sulfate: 2 uM, 2-Hydroxycinnamic acid: 1000 uM) in Xenopus laevis oocytes; assay type: functional, cell-based, Oocyte; design: scale not given: the % may be the effect or the level left; conditions: probe indoxyl sulfate (2 uM), read-out: Activity
T2 sequence (Q9R1U7 whole entry): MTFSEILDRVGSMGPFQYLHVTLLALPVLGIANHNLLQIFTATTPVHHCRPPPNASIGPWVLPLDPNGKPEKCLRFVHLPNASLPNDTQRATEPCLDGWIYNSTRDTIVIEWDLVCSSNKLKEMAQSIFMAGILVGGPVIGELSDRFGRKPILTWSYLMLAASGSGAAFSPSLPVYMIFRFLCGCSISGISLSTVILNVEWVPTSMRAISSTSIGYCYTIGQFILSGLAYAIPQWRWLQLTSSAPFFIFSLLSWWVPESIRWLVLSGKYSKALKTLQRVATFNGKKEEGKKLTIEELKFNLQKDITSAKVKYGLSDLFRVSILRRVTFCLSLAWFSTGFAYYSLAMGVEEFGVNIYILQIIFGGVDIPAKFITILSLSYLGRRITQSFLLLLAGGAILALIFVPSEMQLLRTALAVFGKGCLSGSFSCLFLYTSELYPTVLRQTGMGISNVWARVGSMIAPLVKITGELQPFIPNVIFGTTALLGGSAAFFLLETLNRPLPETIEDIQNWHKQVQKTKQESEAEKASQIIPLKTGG

[3] = molecular target: T2, Organic anion transporter 3 (OAT3); experiment: TP_TRANSPORTER: inhibition of Indoxyl sulfate uptake (indoxyl sulfate: 2 uM, 4-Hydroxybenzoic acid: 1000 uM) in Xenopus laevis oocytes; assay type: functional, cell-based, Oocyte; design: scale not given: the % may be the effect or the level left; conditions: probe indoxyl sulfate (2 uM), read-out: Activity
[4] = molecular target: T2, Organic anion transporter 3 (OAT3); experiment: TP_TRANSPORTER: inhibition of Indoxyl sulfate uptake (indoxyl sulfate: 2 uM, Indoleacetic acid: 1000 uM) in Xenopus laevis oocytes; assay type: functional, cell-based, Oocyte; design: scale not given: the % may be the effect or the level left; conditions: probe indoxyl sulfate (2 uM), read-out: Activity
[5] = molecular target: T2, Organic anion transporter 3 (OAT3); experiment: TP_TRANSPORTER: inhibition of Indoxyl sulfate uptake (indoxyl sulfate: 2 uM, CMPF: 1000 uM) in Xenopus laevis oocytes; assay type: functional, cell-based, Oocyte; design: scale not given: the % may be the effect or the level left; conditions: probe indoxyl sulfate (2 uM), read-out: Activity
[6] = molecular target: T2, Organic anion transporter 3 (OAT3); experiment: TP_TRANSPORTER: inhibition of Indoxyl sulfate uptake (indoxyl sulfate: 2 uM, 4-Hydroxyphenylacetic acid: 1000 uM) in Xenopus laevis oocytes; assay type: functional, cell-based, Oocyte; design: scale not given: the % may be the effect or the level left; conditions: probe indoxyl sulfate (2 uM), read-out: Activity
[7] = substrate: O=S(=O)(O)Oc1c[nH]c2ccccc12; experiment: TP_TRANSPORTER: uptake in Xenopus laevis oocytes; assay type: functional, cell-based, Oocyte

O=C(O)CNC(=O)c1ccccc1 [HIPPURIC ACID]
Activity [1]: 24.6%

O=C(O)/C=C/c1ccccc1O [O-COUMARIC ACID]
activity at 1000 µM [2]: 39.5%

O=C(O)c1ccc(O)cc1 [PARABEN]
activity at 1000 µM [3]: 22.1%

CC(=O)Oc1c[nH]c2ccccc12 [INDOLE ACETATE]
activity at 1000 µM [4]: 51.2%

CCCc1oc(CCC(=O)O)c(C(=O)O)c1C
activity at 1000 µM [5]: 8.38%

O=C(O)Cc1ccc(O)cc1
activity at 1000 µM [6]: 29.7%

B1: Organic anion transporter 3 (Rattus norvegicus) (protein)
chain: MTFSEILDRVGSMGPFQYLHVTLLALPVLGIANHNLLQIFTATTPVHHCRPPPNASIGPWVLPLDPNGKPEKCLRFVHLPNASLPNDTQRATEPCLDGWIYNSTRDTIVIEWDLVCSSNKLKEMAQSIFMAGILVGGPVIGELSDRFGRKPILTWSYLMLAASGSGAAFSPSLPVYMIFRFLCGCSISGISLSTVILNVEWVPTSMRAISSTSIGYCYTIGQFILSGLAYAIPQWRWLQLTSSAPFFIFSLLSWWVPESIRWLVLSGKYSKALKTLQRVATFNGKKEEGKKLTIEELKFNLQKDITSAKVKYGLSDLFRVSILRRVTFCLSLAWFSTGFAYYSLAMGVEEFGVNIYILQIIFGGVDIPAKFITILSLSYLGRRITQSFLLLLAGGAILALIFVPSEMQLLRTALAVFGKGCLSGSFSCLFLYTSELYPTVLRQTGMGISNVWARVGSMIAPLVKITGELQPFIPNVIFGTTALLGGSAAFFLLETLNRPLPETIEDIQNWHKQVQKTKQESEAEKASQIIPLKTGG
Km [7]: 158 µM
